Results published in US11066650B2, “Methods for the in vitro manufacture of gastric fundus tissue and compositions related to same” (Children's Hospital Medical Center, priority 2016, dated 2021).

What was measured:
[1] = system: posterior foregut spheroids; assay: Gastric specification of posterior foregut spheroids into fundic hGOs (qPCR/staining); assay type: cell-based, human
Method: Posterior foregut spheroids were collected and transferred to a three-dimensional culture system as previously described^36. Briefly, spheroids were suspended in 50 μl Matrigel (BD Biosciences) and plated as a droplet into 24-well plates. The matrigel was allowed to solidify for 10 minutes in the tissue culture incubator, then overlayed with basic gut media (BGM) containing growth factors and/or small molecule agonsists. BGM consisted of Advanced DMEM/F12 media (Gibco) supplemented with N2 (1×; Invitrogen), B27 (1×; Invitrogen), HEPES ([…]; Gibco), L-glutamine, penicillin/streptomycin, and EGF (100 ng/ml; R&D Systems). During days 6-9, spheroids were cultured with RA and noggin to specify the antral lineage. For fundic specification, CHIR was added during this stage. Antral hGOs were subsequently cultured in BGM with only EGF. Fundic hGOs were continuously exposed to CHIR from day 6-30. […] On day 20, organoids were collected and re-plated at a dilution of 1:10-1:20.
(§1) Total RNA was isolated using Nucleospin RNA II kit (Machery Nagel) and converted to cDNA as previously described7. qPCR was performed on Quantstudio 6 (Applied Biosystems) using Quantitect SYBR-Green master mix (Qiagen), and primer sequences are listed below.

hFGOs [2] = assay: Screen for factors that increase parietal cell differentiation in hFGOs (qPCR at day 34); assay type: cell-based, human; conditions: for parietal cell gene expression (ATP4A and ATP4B): day 30 hFGOs exposed two days, analysed at day 34
Method: For screening experiments to identify factors that increase parietal cell differentiation, hFGOs were grown to day 30, then exposed for two days to individual signaling pathway agonists and antagonists: DAPT (1 μM; Stemgent), SB431542 (10 μM; Stemgent), BMP4 (50 ng/ml; R&D Systems), PD0325901 (2 μM; Stemgent), Gastrin (10 nM; Sigma Aldrich), Dexamethasone (50 nM; Sigma Aldrich), and Wnt5a (50 ng/ml; R&D Systems). Following treatment, hFGOs were grown for two more days to day 34, then analyzed by qPCR.
as §1

hFGOs [3] = assay: Acid secretion assay, luminal pH by SNARF-5F in fundic hGOs; assay type: cell-based, human
Method: Acid secretion assays were performed as previously described (Schumacher et al., 2015). hGOs were grown in the chambered coverglass (Thermo Scientific) and the chamber was placed on an inverted confocal microscope (Zeiss LSM 710), and experiments were performed under 5% CO2 and 37° C. conditions (incubation chamber, PeCon, Erbach, Germany).
(§2) Freshly isolated mouse gastric fundic glands or cultured hGO were incubated with acridine orange (10 μM), then acridine orange fluorescence was excited at 458 nm or 488 nm and images were collected at 600-650 nm (Red) or 500-550 nm (Green), respectively. On the other hand, to monitor hGOs luminal pH, the ratiometric pH sensitive dye, 5-(and-6)-carboxy SNARF-5F (5 mM stock: EX 560 nm, EM 565-605 (Green) and 620-680 (Red) nm: Invitrogen) was microinjected (46-92 nl) into the lumen and monitored. Fluorescent dye also added into medium. Histamine (100 μM; Sigma) was added to media, while famotidine (100 μM; Sigma) or omeprazole (100 μM; Sigma) were pre-incubated at least 30 min before histamine. Images were analyzed using MetaMorph software (Molecular Devices, Downingtown, Pa.). Background corrected 620-680/565-605 nm ratio values were converted to pH using a standard curve.

hFGOs [4] = conditions: histamine, hFGO glands
Method: as §2, with “Acid secretion assays were performed as previously described (Schumacher et al., 2015). hGOs were grown in the chambered coverglass (Thermo Scientific) and the chamber was placed on an inverted confocal microscope (Zeiss LSM 710), and experiments were performed under 5% CO2 and 37° C. conditions (incubation chamber, PeCon, Erbach, Germany). Freshly” for “Freshly”, “Histamine (100 μM;” left out

[5] = system: isolated mouse gastric glands; conditions: histamine, after 60 minutes
Method: as §2, with “Acid secretion assays were performed as previously described (Schumacher et al., 2015). hGOs were grown in the chambered coverglass (Thermo Scientific) and the chamber was placed on an inverted confocal microscope (Zeiss LSM 710), and experiments were performed under 5% CO2 and 37° C. conditions (incubation chamber, PeCon, Erbach, Germany). Freshly” for “Freshly”, “Histamine (100 μM;” left out

hAGOs = conditions: histamine 100 μM
Method: as §2, with “Acid secretion assays were performed as previously described (Schumacher et al., 2015). hGOs were grown in the chambered coverglass (Thermo Scientific) and the chamber was placed on an inverted confocal microscope (Zeiss LSM 710), and experiments were performed under 5% CO2 and 37° C. conditions (incubation chamber, PeCon, Erbach, Germany). Freshly” for “Freshly”, “Histamine (100 μM;” left out

[6] = CHIR for three days (days 6-9), analysed at day 9

Cc1c[nH]c(-c2cnc(NCCNc3ccc(C#N)cn3)nc2-c2ccc(Cl)cc2Cl)n1 [CHIR99021]
PDX1 expression [1, 6]: nearly complete repression | SOX2 and GATA4 levels [1, 6]: unaffected | expression of IRX2, IRX3, and IRX5 [1, 6]: significantly increased expression | intestinal markers CDX2, MUC2, CCK, or SCT ([1]; CHIR-treated hGOs): did not exhibit a significant increase | fundic gene expression ([1]; continued CHIR treatment through at least day 29): stable induction of fundic gene expression | specification of fundic identity ([1]; three-day pulse of CHIR from days 6-9, later stages): not sufficient to irreversibly specify a fundic identity

O=C(NOC[C@H](O)CO)c1ccc(F)c(F)c1Nc1ccc(I)cc1F [PD0325901]
parietal cell gene expression (ATP4A and ATP4B) (hFGOs [2]): substantial up-regulation

NC(N)=Nc1nc(CSCCC(N)=NS(N)(=O)=O)cs1 [famotidine]
histamine-induced decrease in luminal pH (acidification) (hFGOs [3]; 100 μM, pre-incubated at least 30 min before histamine 100 μM): blocked

NCCc1c[nH]cn1 [histamine]
acridine orange (AO) accumulation (hFGOs [4]): AO accumulated in acidified cellular vesicles | acridine orange (AO) accumulation [5]: induced acridine orange (AO) dye accumulation in a canalicular-type pattern | luminal pH response (hAGOs): no response | luminal pH response (hFGOs [3]; histamine 100 μM): swift and marked decrease in luminal pH

B1: FGF10: growth factor (R&D Systems) added to fundic hGOs day 20-30 (protein, UniProt O15520 38-208, looked up)
Fibroblast growth factor 10: QALGQDMVSPEATNSSSSSFSSPSSAGRHVRSYNHLQGDVRWRKLFSFTKYFLKIEKNGKVSGTKKENCPYSILEITSVEIGVVAVKAINSNYYLAMNKKGKLYGSKEFNNDCKLKERIEENGYNTYASFNWQHNGRQMYVALNGKGAPRRGQKTRRKNTSAHFLPMVVHS
glandular morphogenesis driven by CHIR ([1]; FGF10 50 ng/ml, day 20-30, data not shown): enhance the glandular morphogenesis

B2: BMP4: growth factor, BMP signalling activator (R&D Systems) (protein, UniProt P12644 293-408, looked up)
Bone morphogenetic protein 4: SPKHHSQRARKKNKNCRRHSLYVDFSDVGWNDWIVAPPGYQAFYCHGDCPFPLADHLNSTNHAIVQTLVNSVNSSIPKACCVPTELSAISMLYLDEYDKVVLKNYQEMVVEGCGCR
effect of PD03 on parietal cell gene expression (hFGOs [2]; BMP4 added to PD03, data not shown): could enhance the effect of PD03 | parietal cell gene expression (ATP4A and ATP4B) (hFGOs [2]): did not affect PC gene expression | CDX2 expression ([1]; Noggin replaced with BMP4, with Wnt/β-catenin activation (CHIR)): robust expression of the intestinal transcription factor
